Test results from US10086006B2, “Method for improving drug treatments in mammals” (priority 2013, dated 2018).
In brackets after ≈: the same amount, converted by molar mass. Where two headings read alike, the source gives them in different places.

Assays:
[1] = test system: Escherichia coli (ATCC 25922); test: Susceptibility test (MIC) of fosfomycin against wild-type Escherichia coli; type: cell-based
Experimental: MIC as used herein refers to the minimum inhibitory concentration (MIC) of an antimicrobial that will inhibit the visible growth of a microorganism after overnight incubation. MICs are important in diagnostic laboratories to confirm resistance of microorganisms to an antimicrobial agent and also to monitor the activity of new antimicrobial agents. A MIC is generally regarded as the most basic laboratory measurement of the activity of an antimicrobial agent against an organism. Clinically, the MICs are used not only to determine the amount of antibiotic that a patient will receive but also the type of antibiotic used, which in turn lowers the opportunity for microbial resistance to specific antimicrobial agents. Applying MIC testing to a number of bacterial strains in the same species provides an estimate of the concentration that inhibits 50% (MIC50) and 90% (MIC90) of bacterial isolates and can indicate shifts in susceptibility of bacterial populations to antibiotics.
(§1) A dose-fractionation study was conducted utilizing a wild-type strain of Escherichia coli (ATCC 25922; fosfomycin MIC=0.5 mg/L agar; 1 mg/L broth microtiter) in a one-compartment in vitro infection model where the human drug concentration-time profile was simulated over a 24 hour study period.
(§2) Another reason may be the volume of the micro-titer well (100-200 μL) used in the test method is small, containing 50,000-100,000 CFU. The inherently fosfomycin-resistant subpopulation has a frequency of 1 in 350,000 CFU. Thus, for fosfomycin, the standard susceptibility test method is an insensitive measure of the drug concentration required to inhibit a clinically relevant bacterial inoculum.

[2] = test system: fosfomycin-resistant E. coli subpopulation (ATCC 25922); test: Susceptibility (agar MIC, RIC) of the inherently fosfomycin-resistant subpopulation; type: cell-based, Escherichia coli; conditions: resistant subpopulation within the standard starting inoculum 5×10^5 CFU/mL
Experimental: RIC as used herein refers to the resistant inhibitory concentration and identifies the concentrations of antimicrobial required to inhibit the less susceptible or ‘resistant’ mutant subpopulation of organisms. RIC is a new term coined by the inventors of the present invention and is utilized throughout the specification herewith.
as §2
(§3) Note the relatively stronger relationship between the change in bacterial density and AUC0-24:RIC ratio and % T>RIC compared with that for Cmax:RIC ratio, where RIC is the concentration needed to inhibit the fosfomycin-resistant subpopulation.

[3] = test system: Escherichia coli (ATCC 25922); test: Dose-fractionation study in a one-compartment in vitro infection model; type: cell-based
Experimental: as §1
In such a circumstance, one way to overcome the poor sensitivity of the susceptibility test method is to increase the inoculum size and/or the volume of test system. The one-compartment in vitro infection model is a much more sensitive tool to measure the drug concentration required to inhibit a clinically relevant bacterial inoculum owing to its ability accommodate a higher inoculum and the larger volume (125 mL) of the test system. For this reason, dose-fractionation studies were conducted using a one-compartment in vitro infection model to identify the PK-PD measure most closely associated with efficacy.
as §3

[4] = test system: Escherichia coli ATCC 25922; test: Neutropenic murine-thigh infection model; type: in vivo; conditions: neutropenic mice
Experimental: In vivo animal studies utilizing the neutropenic murine-thigh model were conducted to confirm key results obtained from the in vitro PK-PD infection models. Initial goals of the studies were to confirm the presence of a clinically-relevant fosfomycin-resistant subpopulation in vivo and to confirm % T>RIC was the PK-PD measure that predicted response.
In brief, six-week-old specific-pathogen-free female CD1 (ICR/Swiss) mice were rendered neutropenic by two intra-peritoneal injections of cyclophosphamide, 150 mg/kg of body weight 4 days prior to the study and 100 mg/kg 1 day prior to the study. The challenge isolate was Escherichia coli ATCC 25922 (fosfomycin MIC, 1 mg/L), which was the same strain used in the aforementioned in vitro PK-PD infection model studies. […]
To determine which PK-PD measure best described efficacy, the number of bacteria in the thigh at the end of 24 hours of therapy (or earlier for some of the lowest doses) was correlated with 1) the Cmax:MIC ratio, 2) the 24-hour AUC0-24:MIC ratio, 3) the percentage of the dosing interval during that serum concentrations exceed the MIC, and 4) the percentage of the dosing interval during that serum concentrations exceed the RIC for each of the dosage regimens studied. […] The correlation between efficacy and each of the […] PK-PD indices was determined by nonlinear least-squares multivariate regression. […]

C[C@@H]1O[C@@H]1P(=O)(O)O [fosfomycin]
MIC ([1]; ATCC25922, E. coli ATCC 25922 challenge isolate, method not stated, read-out: fosfomycin MIC of the challenge isolate): 1 µg/mL
MIC ([1]; ATCC25922, agar, wild-type E. coli ATCC 25922, read-out: fosfomycin MIC (agar)): 0.5 µg/mL (≈ 3.62 µM)
MIC ([1]; ATCC25922, broth microtiter, wild-type E. coli ATCC 25922, read-out: fosfomycin MIC (broth microtiter)): 1 µg/mL (≈ 7.24 µM)
MIC ([2]; Escherichia coli, ATCC25922, agar): 32 to 64 µg/mL
agar MIC of the fosfomycin-resistant subpopulation ([2]; agar): 32 µg/mL
relation of bacterial killing to dosing interval ([3]; at maximally effective AUC0-24:RIC ratios and free-drug % T>RIC, 24 hour): as the duration of the dosing interval decreases, the amount of bacterial killing increases
range of the change in bacterial density at 24 hours between regimens ([3]; regimens identical in total daily dose and % T>MIC (100%), differing in dosing interval, simulated human concentration-time profile): 8 log10
density of the drug-resistant subpopulation in the thighs after 24 hours of therapy ([4]; dose range 1.56 to 400 mg/kg every 3 hours): eliminated at the highest dose-level
PK-PD measure correlated with change in log10 CFU in the thighs after 24 hours of therapy ([4]; dosing intervals of 3, 6, 12, and 24 hours): % T>RIC was well-correlated with change in bacterial density
